In brackets after ≈: the same amount, converted by molar mass.
How the values were obtained:
Enterococcus faecalis [1] = assay: MIC, standard antibiogram based on microdilution; assay type: cell-based
Description: A quantitative method may rely on dilution in a series of broths or agar solutions having progressively lower concentrations of the antibiotic in question. The lowest concentration of antibiotic in which the bacteria cannot grow provides the minimum inhibitory concentration of that antibiotic to the tested strain of bacteria. This quantitative method may be routinely employed in the hospitals, usually using commercial panels of antibiotics and semi-automated systems of incubation and software for data interpretation like the MicroScan WalkAway™ (Siemens), Phoenix (Becton Dickinson), or Vitek™ 2 (bioMérieux). With such growth-dependent automated systems, results of susceptibility or resistance to antimicrobians from a specific microorganism may be obtained in around 6-9 hours.
(§1) As an example, two strains of Enterococcus faecalis exponentially growing in Mueller-Hinton broth were incubated under four different conditions and then assayed. […] Each strain was subjected to four treatments for the purpose of rapidly distinguishing the susceptible and the resistant strain to erythromycin.

Enterococcus faecalis [2] = assay: Variant Micromax assay of cell lysis by lysozyme after erythromycin (Example 6); assay type: cell-based; details: for lysed cells: erythromycin 0.5 μg/ml 75 min, lysozyme 1 mg/ml during last 10 min
Description: as §1
The dose was that indicated by the CLSI as the breakpoint of susceptibility to erythromycin in the standard antibiogram based on microdilution. Another portion of both strains was incubated with lysozyme 1 mg/ml, 10 min at 37° C. […]
After incubation with lysozyme, the cells were processed using a variant of the Micromax technology to visualize the nucleoids, i.e. spreading of the bacterial chromosomal DNA, in all the cells of the population. Samples from the cultures were immersed in an agarose microgel on a slide and incubated with a specific lysing solution to remove the cell wall in all the cells and release in the microgel the nucleoids contained inside the bacteria. These are dried, stained with a highly sensitive fluorochrome for DNA like SYBR Gold and visualized under fluorescence microscopy.

[3] = erythromycin-susceptible strain

Compound: CC[C@H]1OC(=O)[C@H](C)[C@@H](O[C@H]2C[C@@](C)(OC)[C@@H](O)[C@H](C)O2)[C@H](C)[C@@H](O[C@@H]2O[C@H](C)C[C@H](N(C)C)[C@H]2O)[C@](C)(O)C[C@@H](C)C(=O)[C@H](C)[C@@H](O)[C@]1(C)O [erythromycin]
- MIC (Enterococcus faecalis [1]; erythromycin-resistant strain): > 128 µg/mL
- MIC (Enterococcus faecalis [1]; [3]): 0.125 µg/mL (≈ 0.17 µM)
- lysed cells (Enterococcus faecalis [2]; erythromycin-resistant strain): 96.77%
- lysed cells (Enterococcus faecalis [2]; [3]): 3.87%
- response pattern in further Enterococcus strains (Enterococcus faecalis [2]; four more erythromycin-susceptible and thirteen more erythromycin-resistant strains): a similar response pattern has been reproduced

From patent US10472663B2, “Procedure for the rapid determination of bacterial susceptibility to antibiotics that inhibit protein synthesis” (ABM TECHNOLOGIES, LLC, priority 2015, dated 2019)
